“And” between values parts separate entries of the source, which are not always exact repeats. Equal entries are not always repeated. Where two headings read alike, the source gives them in different places.
Molecular target: T1, human β3-adrenergic receptor (Homo sapiens, UniProt P13945)
T1 construct: Full length β3 AR clones (402 amino acids) containing the last 6 amino acids of hβ3—AR are prepared; expressed in transfected cells; host or cells: CHO cells
Assay: cAMP response (SPA kit) in CHO cells transfected with human β3 adrenergic receptor
Assay type: cell-based
Details: for IA(β3): maximal response of compound compared to maximal response of isoproterenol at 10^-5 M, CHO cells, human β3-AR; for EC50: CHO cells expressing human β3-AR, 10^-9 M to 10^-5 M, 30 min at 37° C., cAMP by SPA

T1 sequence (P13945 whole entry): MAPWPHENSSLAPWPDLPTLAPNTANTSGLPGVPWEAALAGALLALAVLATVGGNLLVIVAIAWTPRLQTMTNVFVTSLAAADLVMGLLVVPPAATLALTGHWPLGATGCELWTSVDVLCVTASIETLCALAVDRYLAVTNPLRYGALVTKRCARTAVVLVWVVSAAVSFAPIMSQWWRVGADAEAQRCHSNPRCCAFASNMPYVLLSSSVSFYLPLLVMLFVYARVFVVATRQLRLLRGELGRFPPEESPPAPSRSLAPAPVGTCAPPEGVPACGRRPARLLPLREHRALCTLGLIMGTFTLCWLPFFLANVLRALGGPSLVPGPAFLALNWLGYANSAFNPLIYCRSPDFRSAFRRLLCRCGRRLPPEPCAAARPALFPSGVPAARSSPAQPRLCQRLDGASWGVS

Row | Molecule | IA(β3) | EC50 (read-out: EC50(β3)) | EC50 (EC50(β3, μM)) [µM]
1 | O=C(NCc1ccc(O)cc1F)N1CCC(Nc2ccc(CCNCC(O)COc3ccc(O)cc3)cc2)CC1 (centres unmarked) [Example 83, 4-(4-{2-[2-Hydroxy-3-(4-hydroxy-phenoxy)-propylamino]-ethyl}-phenylamino)-piperidine-1-carboxylic Acid 2-fluoro-4-hydroxy-benzylamide] | 0.88 | – | –
2 | O=C(NCCc1cccc(F)c1)N1CCC(Nc2ccc(CCNC[C@H](O)COc3ccc(O)cc3)cc2)CC1 [Example 88, 4-(4-{2-[(2S)-2-Hydroxy-3-(4-hydroxy-phenoxy)-propylamino]-ethyl}-phenylamino)-piperidine-1-carboxylic Acid [2-(3-fluoro-phenyl)-ethyl]-amide] | 0.81 | 0.021 µM | –
3 | O=C(NCc1ccc(F)cc1)N1CCC(Nc2ccc(CCNC[C@H](O)COc3ccc(O)cc3)cc2)CC1 [Example 1, 4-(4-{2-[(2S)-2-Hydroxy-3-(4-hydroxy-phenoxy)-propylamino]-ethyl}-phenylamino)-piperidine-1-carboxylic Acid 4-fluoro-benzylamide] | 0.95 and 0.71 and 0.91 | 0.032 µM and 0.036 µM and 0.05 µM | –
4 | COc1c(C(=O)N2CCC(Nc3ccc(CCNC[C@H](O)COc4ccc(O)cc4)cc3)CC2)sc2ccccc12 [Example 97, [4-(4-{2-[(2S)-2-Hydroxy-3-(4-hydroxy-phenoxy)-propylamino]-ethyl}-phenylamino)-piperidin-1-yl]-(3-methoxy-benzo[b]thiophen-2-yl)-methanone] | 0.79 | 0.034 µM | –
5 | O=C(CCNC(=O)N1CCC(Nc2ccc(CCNC[C@H](O)COc3ccc(O)cc3)cc2)CC1)Nc1ccc(F)cc1 [Example 81, 4-(4-{2-[(2S)-2-Hydroxy-3-(4-hydroxy-phenoxy)-propylamino]-ethyl}-phenylamino)-piperidine-1-carboxylic Acid [2-(4-fluoro-phenylcarbamoyl)-ethyl]-amide] | 1 | 0.021 µM | –
6 | Cc1ccc(S(=O)(=O)N2CCC(Nc3ccc(CCNC[C@H](O)COc4ccc(O)cc4)cc3)CC2)cc1 [Example 112, 4-[(2S)-2-Hydroxy-3-(2-{4-[1-(toluene-4-sulfonyl)-piperidin-4-ylamino]-phenyl}-ethylamino)-propoxy]-phenol] | 0.89 | 0.086 µM | –
7 | CN(C)C(=O)Oc1ccc(CNC(=O)N2CCC(Nc3ccc(CCNC[C@H](O)COc4ccc(O)cc4)cc3)CC2)c(F)c1 [Example 84, Dimethyl-carbamic Acid 3-fluoro-4-({[4-(4-{2-[(2S)-2-hydroxy-3-(4-hydroxy-phenoxy)-propylamino]-ethyl}-phenlamino)-piperidine-1-carbonyl]-amino}-methyl)-phenyl Ester] | 0.75 | – | 0.096
8 | CCCCCCCCNC(=O)N1CCC(C(=O)N2CCC(Nc3ccc(CCNC[C@H](O)COc4ccc(O)cc4)cc3)CC2)CC1 [Example 92, 4-[4-(4-{2-[(2S)-2-Hydroxy-3-(4-hydroxy-phenoxy)-propylamino]-ethyl}-phenylamino)-piperidine-1-carbonyl]-piperidine-1-carboxylic Acidoctylamide] | 0.92 | 0.01 µM | –
9 | COc1cccc(CCNC(=O)N2CCC(Nc3ccc(CCNC[C@H](O)COc4ccc(O)cc4)cc3)CC2)c1 [Example 6, 4-(4-{2-[(2S)-2-Hydroxy-3-(4-hydroxy-phenoxy)-propylamino]-ethyl}-phenylamino)-piperidine-1-carboxylic Acid [2-(3-methoxy-phenyl)-ethyl]-amide] | 1.21 | 0.106 µM | –
10 | 4-[(2S)-2-Hydroxy-3-(2-{4-[-(1-methyl-1H-imidazole-4-sulfonyl)-piperidin-4-ylamino]-phenyl}-ethylamino)-propoxy]-phenol [Example 113] | 1 | 0.13 µM | –
11 | O=C(NCCCC1CCCC1)N1CCC(Nc2ccc(CCNC[C@H](O)COc3ccc(O)cc3)cc2)CC1 [Example 12, 1-4-(4-{2-[(2S)-2-Hydroxy-3-(4-hydroxy-phenoxy)-propylamino]-ethyl}-phenylamino)-piperidine-1-carboxylic Acid (3-cyclopentyl-propyl)-amide] | – | 0.05 µM | –
12 | O=C(NCC1(c2ccccc2)CCCC1)N1CCC(S(=O)(=O)c2ccc(CCNC[C@H](O)COc3ccc(O)cc3)cc2)CC1 [Example 46, 4-(4-{2-[(2S)-2-Hydroxy-3-(4-hydroxy-phenoxy)-propylamino]-ethyl}-benzenesulfonyl)-piperidine-1-carboxylic Acid (1-phenyl-cyclopentylmethyl)-amide] | 0.82 | 0.162 µM | –
13 | CCCCCCCCNC(=O)N1CCC(N(C(C)=O)c2ccc(CCNC[C@H](O)COc3ccc(O)cc3)cc2)CC1 [Example 8, 4-[Acetyl-(4-{2-[(2S)-2-hydroxy-3-(4-hydroxy-phenoxy)-propylamino]-ethyl}-phenyl)-amino]-piperidine-1-carboxylic Acid Octylamide] | 0.82 | 0.064 µM | –
14 | O=C(NCc1ccc(O)cc1F)N1CCC(Nc2ccc(CCNC[C@H](O)COc3cccc(O)c3)cc2)CC1 [Example 87, 4-(4-{2-[(2S)-2-Hydroxy-3-(3-hydroxy-phenoxy)-propylamino]-ethyl}-phenylamino)-piperidine-1-carboxylic Acid 2-fluoro-4-hydroxy-benzylamide] | 0.84 | 0.004 µM | –
15 | O=C(NCc1ccc(F)cc1F)N1CCC(Nc2ccc(CCNC[C@H](O)COc3ccc(O)cc3)cc2)CC1 [Example 80, 4-(4-{2-[(2S)-2-Hydroxy-3-(4-hydroxy-phenoxy)-propylamino]-ethyl}-phenylamino)-piperidine-1-carboxylic acid 2,4-difluoro-benzylamide] | 0.84 | – | –
16 | Oc1ccc(OC[C@@H](O)CNCCc2ccc(NC3CCN(c4nc(-c5ccccc5)cs4)CC3)cc2)cc1 [Example 117, 4-[(2S)-2-Hydroxy-3-(2-{4-[1l-(4-phenyl-thiazol-2-yl)-piperidin-4-ylamino]-phenyl}-ethylamino)-propoxy]-phenol] | 1.1 | 0.208 µM | –
17 | COc1cccc(CNC(=O)N2CCC(Nc3ccc(CCNC[C@H](O)COc4ccc(O)cc4)cc3)CC2)c1 [Example 79, 4-(4-{2-[(2S)-2-Hydroxy-3-(4-hydroxy-phenoxy)-propylamino]-ethyl}-phenylamino)-piperidine-1-carboxylic acid 3-methoxy-benzylamide] | 0.8 | 0.041 µM | –
18 | 1H-Indole-2-carboxylic Acid (4-{2-[(2S)-2-hydroxy-3-(4-hydroxy-phenoxy)-propylamino]-ethyl}-phenyl)-amide [Example 91] | 1 | 0.051 µM | –
19 | CCNC(=O)N1CCC(Nc2ccc(CCNC[C@H](O)COc3ccc(O)cc3)cc2)CC1 [Example 10, 4-(4-{2-[(2S)-2-Hydroxy-3-(4-hydroxy-phenoxy)-propylamino]-ethyl}-phenylamino)-piperidine-1-carboxylic Acid Ethylamide] | 0.85 | 0.043 µM | –
20 | CS(=O)(=O)Nc1cc([C@@H](O)CNCCc2ccc(NC3CCN(c4nc(-c5ccccc5)cs4)CC3)cc2)ccc1O [Example 118, (R)-N-{2-Hydroxy-5-[1-hydroxy-2-(2-{4-[1-(4-phenyl-thiazol-2-yl)-piperidin-4-ylamino]-phenyl}-ethylamino)-ethyl]-phenyl}-methanesulfonamide] | 0.96 | 0.022 µM | –
21 | Cc1ccsc1C(=O)N1CCC(Nc2ccc(CCNC[C@H](O)COc3ccc(O)cc3)cc2)CC1 [Example 100, [4-(4-{2-[(2S)-2-Hydroxy-3-(4-hydroxy-phenoxy)-propylamino]-ethyl}-phenylamino)-piperidin-1-yl]-(3-methyl-thiophen-2-yl)-methanone] | 0.98 | 0.016 µM | –
22 | CCCCCCCCNC(=O)N1CCC(Nc2ccc(CCNC[C@H](O)c3cccc(Cl)c3)cc2)CC1 [Example 36, 4-(4-{2-[(2R)-2-(3-Chloro-phenyl)-2-hydroxy-ethylamino]-ethyl}-phenylamino)-piperidine-1-carboxylic Acid Octylamide] | 0.77 | – | –
23 | CCOC(=O)c1ccc(N2CCC(Nc3ccc(CCNC[C@H](O)c4ccc(O)c(NS(C)(=O)=O)c4)cc3)CC2)cc1 [Example 120, 4-[4-(4-{2-[(2R)-2-Hydroxy-2-(4-hydroxy-3-methanesulfonylamino-phenyl)-ethylamino]-ethyl}-phenylamino)-piperidin-1-yl]-benzoic Acid Ethyl Ester] | 1.1 | 0.025 µM | –
24 | CS(=O)(=O)Nc1cc([C@@H](O)CNCCc2ccc(NC3CCN(C(=O)N4CCC(C(=O)O)CC4)CC3)cc2)ccc1O [Example 52, 1-[4-(4-{2-[(2R)-2-Hydroxy-2-(4-hydroxy-3-methanesulfonylamino-phenyl)-ethylamino]-ethyl}-phenylamino)-piperidine-1-carbonyl]-piperidine-4-carboxylic Acid] | 0.82 | 0.069 µM | –
25 | CCN(CC)C(=O)CCNC(=O)N1CCC(Nc2ccc(CCNC[C@H](O)COc3ccc(O)cc3)cc2)CC1 [Example 89, 4-(4-{2-[(2S)-2-Hydroxy-3-(4-hydroxy-phenoxy)-propylamino]-ethyl}-phenylamino)-piperidine-1-carboxylic Acid (2-diethylcarbamoyl-ethyl)-amide] | 0.83 | 0.093 µM | –
26 | O=C(c1cc2cc(Br)ccc2[nH]1)N1CCC(Nc2ccc(CCNC[C@H](O)COc3ccc(O)cc3)cc2)CC1 [Example 96, (5-Bromo-1H-indol-2-yl)-[4-(4-{2-[(2S)-2-hydroxy-3-(4-hydroxy-phenoxy)-propylamino]-ethyl}-phenylamino)-piperidin-1-yl]-methanone] | 0.83 | 0.306 µM | –
27 | Cc1ccsc1C(=O)N1CCC(Nc2ccc(CCNC[C@H](O)COc3cccc4[nH]c(=O)[nH]c34)cc2)CC1 [Example 101, 4-[(2S)-2-Hydroxy-3-(2-{4-[1-(3-methyl-thiophene-2-carbonyl)-piperidin-4-ylamino]-phenyl}-ethylamino)-propoxy]-1,3-dihydro-benzoimidazol-2-one] | 0.63 | 0.01 µM | –

Reference: US6451814B1, “Heterocyclic β-3 adrenergic receptor agonists” (Wyeth, priority 2000, dated 2002)
